From patent US20120141788A1, “PROCESS AND DEVICE FOR THE PRECIPITATION OF AN ORGANIC COMPOUND” (Fujifilm Manufacturing Europe B.V., priority 2006, published 2012)

Tests used:
[1] = Particle size distribution of the precipitate measured with a Malvern Mastersizer 2000; format: physicochemical; details: precipitated particles; for D50 of this batch / D90 of this batch: ethanol/water, Malvern Mastersizer 2000
Excerpt: Preferably, the precipitated organic compound is in particulate form and has a D50 of less than 500 nm, more preferably less than 400 nm, even more preferably of less than 300 nm, and in particular less than 200 nm. The D50 can be measured by techniques known in the art, e.g. laser diffraction according to method ISO 13320-1 using e.g. a Malvern Mastersizer 2000 particle size analyser.
The particle size distribution is wide, including many particles of 10 μm edge length or more. […] The D50 of this batch is 14.59 μm. So 50% of all particles have a volume median size which is smaller than 14.59 μm. The D90 of this batch is 36.22 μm.
Particle size distribution was measured with a Malvern Mastersizer 2000. The D50 of this batch is 9.17 μm. The D90 of this batch is 18.72 μm. (FIG. 8)

[2] = Saturation concentration in ethanol; format: physicochemical; details: 325 K

SMILES	particle size distribution (shape, in words) [1]	D50 of this batch [1]	D90 of this batch [1]	saturation conc. in EtOH [2]
CC(=O)[C@H]1CC[C@H]2[C@@H]3CC=C4C[C@@H](O)CC[C@]4(C)[C@H]3CC[C@]12C [Inventive Example 1, pregnenolone]	narrow	9.17 μm	18.72 μm	–
CC(=O)[C@H]1CC[C@H]2[C@@H]3CC=C4C[C@@H](O)CC[C@]4(C)[C@H]3CC[C@]12C [Comparative Example 3, pregnenolone]	narrower particle size distribution than Comparative Example 2	9.17 μm	18.72 μm	–
CC(=O)[C@H]1CC[C@H]2[C@@H]3CC=C4C[C@@H](O)CC[C@]4(C)[C@H]3CC[C@]12C [pregnenolone]	–	–	–	34 g/L
CC(=O)[C@H]1CC[C@H]2[C@@H]3CC=C4C[C@@H](O)CC[C@]4(C)[C@H]3CC[C@]12C [Comparative Example 1, pregnenolone]	wide	14.59 μm	36.22 μm	–
